The source made the active and inactive calls. The rule behind the calls is not given here.

The test system of the data set is CCRIS mutagenicity, Ames/micronucleus/aberration tests. The data set is described as follows: CCRIS mutagenicity studies.
The mark [1] stands for this setting: Test System: AMES SALMONELLA TYPHIMURIUM, Strain/Indicator: TA97, Metabolic Activation: NONE, Method: PREINCUBATION
Where [2] appears, read: Test System: AMES SALMONELLA TYPHIMURIUM, Strain/Indicator: TA98, Metabolic Activation: NONE, Method: PREINCUBATION
The mark [3] stands for this setting: Test System: AMES SALMONELLA TYPHIMURIUM, Strain/Indicator: TA100, Metabolic Activation: NONE, Method: PREINCUBATION
The mark [4] stands for this setting: Test System: AMES SALMONELLA TYPHIMURIUM, Strain/Indicator: TA1535, Metabolic Activation: NONE, Method: PREINCUBATION
Where [5] appears, read: Test System: AMES SALMONELLA TYPHIMURIUM, Strain/Indicator: TA1535, Metabolic Activation: RAT, LIVER, S-9, AROCLOR 1254 (10 OR 30%), Method: PREINCUBATION
The mark [6] stands for this setting: Test System: AMES SALMONELLA TYPHIMURIUM, Strain/Indicator: TA98, Metabolic Activation: RAT, LIVER, S-9, AROCLOR 1254, Method: STANDARD PLATE.
[7] abbreviates: Test System: AMES SALMONELLA TYPHIMURIUM, Strain/Indicator: TA100, Metabolic Activation: NONE, Method: STANDARD PLATE.
Where [8] appears, read: Test System: AMES SALMONELLA TYPHIMURIUM, Strain/Indicator: TA100, Metabolic Activation: RAT, LIVER, S-9, AROCLOR 1254, Method: STANDARD PLATE.
[9] abbreviates: Test System: AMES SALMONELLA TYPHIMURIUM, Strain/Indicator: TA1535, Metabolic Activation: NONE, Method: STANDARD PLATE.
[10] abbreviates: Test System: AMES SALMONELLA TYPHIMURIUM, Strain/Indicator: TA1535, Metabolic Activation: RAT, LIVER, S-9, AROCLOR 1254, Method: STANDARD PLATE.
Setting [11] is: Test System: AMES SALMONELLA TYPHIMURIUM, Strain/Indicator: TA1537, Metabolic Activation: NONE, Method: STANDARD PLATE.
Where [12] appears, read: Test System: AMES SALMONELLA TYPHIMURIUM, Strain/Indicator: TA1537, Metabolic Activation: RAT, LIVER, S-9, AROCLOR 1254, Method: STANDARD PLATE.

As for `CN(Cc1cnc2nc(N)nc(N)c2n1)c1c(Cl)cc(C(=O)N[C@@H](CCC(=O)O)C(=O)O)cc1Cl`, the mutagenic call by setting is: (Test System: AMES SALMONELLA TYPHIMURIUM, Strain/Indicator: TA97, Metabolic Activation: HAMSTER, LIVER, S-9, AROCLOR 1254 (10 OR 30%), Method: PREINCUBATION) “inactive; negative”; under setting [1], “inactive; negative”; (Test System: AMES SALMONELLA TYPHIMURIUM, Strain/Indicator: TA97, Metabolic Activation: RAT, LIVER, S-9, AROCLOR 1254 (10 OR 30%), Method: PREINCUBATION) “inactive; negative”; (Test System: AMES SALMONELLA TYPHIMURIUM, Strain/Indicator: TA98, Metabolic Activation: HAMSTER, LIVER, S-9, AROCLOR 1254 (10 OR 30%), Method: PREINCUBATION) “inactive; negative”; under setting [2], “inactive; negative”; (Test System: AMES SALMONELLA TYPHIMURIUM, Strain/Indicator: TA98, Metabolic Activation: RAT, LIVER, S-9, AROCLOR 1254 (10 OR 30%), Method: PREINCUBATION) “inactive; negative”. Also, the mutagenic call runs as follows: (Test System: AMES SALMONELLA TYPHIMURIUM, Strain/Indicator: TA100, Metabolic Activation: HAMSTER, LIVER, S-9, AROCLOR 1254 (10 OR 30%), Method: PREINCUBATION) “inactive; negative”; under setting [3], “inactive; negative”; (Test System: AMES SALMONELLA TYPHIMURIUM, Strain/Indicator: TA100, Metabolic Activation: RAT, LIVER, S-9, AROCLOR 1254 (10 OR 30%), Method: PREINCUBATION) “inactive; negative”; (Test System: AMES SALMONELLA TYPHIMURIUM, Strain/Indicator: TA1535, Metabolic Activation: HAMSTER, LIVER, S-9, AROCLOR 1254 (10 OR 30%), Method: PREINCUBATION) “inactive; negative”; under setting [4], “inactive; negative”; under setting [5], “inactive; negative”. For the same molecule, the mutagenic call reads like this: (Test System: AMES SALMONELLA TYPHIMURIUM, Strain/Indicator: TA1537, Metabolic Activation: HAMSTER, LIVER, S-9, AROCLOR 1254 (10 OR 30%), Method: PREINCUBATION) “inactive; negative”; (Test System: AMES SALMONELLA TYPHIMURIUM, Strain/Indicator: TA1537, Metabolic Activation: NONE, Method: PREINCUBATION) “inactive; negative”; (Test System: AMES SALMONELLA TYPHIMURIUM, Strain/Indicator: TA1537, Metabolic Activation: RAT, LIVER, S-9, AROCLOR 1254 (10 OR 30%), Method: PREINCUBATION) “inactive; negative”.

For `O=C(c1ccc(O)cc1)c1ccc(O)cc1`, the mutagenic call (End Point: In vitro micronucleus, Test System: HepG2 cells, Metabolic Activation: None) is “inactive; negative”.

As for `O=C1c2ccc(O)c(O)c2C(=O)c2c(O)ccc(O)c21`, the mutagenic call is, setting by setting: under setting [6], “inactive; negative”; under setting [7], “inactive; negative”; under setting [8], “inactive; negative”; under setting [9], “inactive; negative”; under setting [10], “inactive; negative”; under setting [11], “active; positive”. Further, the mutagenic call reads like this: under setting [12], “active; positive”; (Test System: AMES SALMONELLA TYPHIMURIUM, Strain/Indicator: TA1538, Metabolic Activation: RAT, LIVER, S-9, AROCLOR 1254, Method: STANDARD PLATE) “inactive; negative”.

Turning to `CCOP(=S)(OCC)OP(=S)(OCC)OCC`, the mutagenic call reads like this: (Test System: AMES SALMONELLA TYPHIMURIUM, Strain/Indicator: TA97, Metabolic Activation: HAMSTER, LIVER, S-9, AROCLOR 1254 (10%), Method: PREINCUBATION) “inactive; negative”; under setting [1], “inactive; negative”; (Test System: AMES SALMONELLA TYPHIMURIUM, Strain/Indicator: TA97, Metabolic Activation: RAT, LIVER, S-9, AROCLOR 1254 (10%), Method: PREINCUBATION) “inactive; negative”; (Test System: AMES SALMONELLA TYPHIMURIUM, Strain/Indicator: TA98, Metabolic Activation: HAMSTER, LIVER, S-9, AROCLOR 1254 (10%), Method: PREINCUBATION) “inactive; negative”; under setting [2], “inactive; negative”; (Test System: AMES SALMONELLA TYPHIMURIUM, Strain/Indicator: TA98, Metabolic Activation: RAT, LIVER, S-9, AROCLOR 1254 (10%), Method: PREINCUBATION) “inactive; negative”. In addition, the mutagenic call reads like this: (Test System: AMES SALMONELLA TYPHIMURIUM, Strain/Indicator: TA100, Metabolic Activation: HAMSTER, LIVER, S-9, AROCLOR 1254 (10%), Method: PREINCUBATION) “inactive; negative”; under setting [3], “inactive; negative”; (Test System: AMES SALMONELLA TYPHIMURIUM, Strain/Indicator: TA100, Metabolic Activation: RAT, LIVER, S-9, AROCLOR 1254 (10%), Method: PREINCUBATION) “inactive; negative”; (Test System: AMES SALMONELLA TYPHIMURIUM, Strain/Indicator: TA1535, Metabolic Activation: HAMSTER, LIVER, S-9, AROCLOR 1254 (5, 10 OR 30%), Method: PREINCUBATION) “active; positive”; under setting [4], “inactive; negative”; under setting [5], “inactive; negative”.

For `CC1(C)C(=O)[C@]2(C)CC[C@H]1C2`, the mutagenic call was “inactive; negative” (Test System: AMES SALMONELLA TYPHIMURIUM, Strain/Indicator: TA98, Metabolic Activation: HAMSTER, LIVER, S-9, AROCLOR 1254, Method: STANDARD PLATE); “inactive; negative” (Test System: AMES SALMONELLA TYPHIMURIUM, Strain/Indicator: TA98, Metabolic Activation: NONE, Method: STANDARD PLATE); “inactive; negative” under setting [6]; “inactive; negative” (Test System: AMES SALMONELLA TYPHIMURIUM, Strain/Indicator: TA100, Metabolic Activation: HAMSTER, LIVER, S-9, AROCLOR 1254, Method: STANDARD PLATE); “inactive; negative” under setting [7]; “inactive; negative” under setting [8]. Besides, the mutagenic call is, setting by setting: (Test System: AMES SALMONELLA TYPHIMURIUM, Strain/Indicator: TA102, Metabolic Activation: HAMSTER, LIVER, S-9, AROCLOR 1254, Method: STANDARD PLATE) “inactive; negative”; (Test System: AMES SALMONELLA TYPHIMURIUM, Strain/Indicator: TA102, Metabolic Activation: NONE, Method: STANDARD PLATE) “inactive; negative”; (Test System: AMES SALMONELLA TYPHIMURIUM, Strain/Indicator: TA102, Metabolic Activation: RAT, LIVER, S-9, AROCLOR 1254, Method: STANDARD PLATE) “inactive; negative”; (Test System: AMES SALMONELLA TYPHIMURIUM, Strain/Indicator: TA1535, Metabolic Activation: HAMSTER, LIVER, S-9, AROCLOR 1254, Method: STANDARD PLATE) “inactive; negative”; under setting [9], “inactive; negative”; under setting [10], “inactive; negative”. Also, the mutagenic call reads like this: (Test System: AMES SALMONELLA TYPHIMURIUM, Strain/Indicator: TA1537, Metabolic Activation: HAMSTER, LIVER, S-9, AROCLOR 1254, Method: STANDARD PLATE) “inactive; negative”; under setting [11], “inactive; negative”; under setting [12], “inactive; negative”; (Test System: Mouse lymphoma, Strain/Indicator: L5178Y (tk+/tk-), Metabolic Activation: None, Method: Suspension/plate) “inactive; negative”; (Test System: Mouse lymphoma, Strain/Indicator: L5178Y (tk+/tk-), Metabolic Activation: Rat, Liver, S-9, Aroclor 1254, Method: Suspension/plate) “active; positive”.

(Values after PubChem BioAssay AID1259407 (Chemical Carcinogenesis Research Information System (CCRIS), 2018).)
